Experimental data from the supplement of paper PMC10307832.

Key:
Assay in all cases: relative viability (nuclei count vs DMSO), 5 days (fraction); higher = more cells survive
[1] = compound: CN[C@@H]1C[C@H]2O[C@@](C)([C@@H]1OC)n1c3ccccc3c3c4c(c5c6ccccc6n2c5c31)C(=O)NC4 [Staurosporine] + C[C@@H](Oc1cc(-c2cnn(C3CCNCC3)c2)cnc1N)c1c(Cl)ccc(F)c1Cl [Crizotinib] (partner 1 µM)
Summary of the method: (§1)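 Cells from lung cancer lines were seeded into 1536-well plates and, one day later, dosed by pin tool. Treatments were either a single drug or a fixed dose of an anchor drug with five library-drug doses (not always all listed) in √10 steps. After 5 days, nuclei were stained in a one-step fixation (final 0.05% Triton X-100, 1% formaldehyde, 1 ug/ml Hoechst) and counted on 4× images, and relative viability is the treated-to-vehicle nuclei ratio, as the median of duplicate plates.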

[2] = compound: O=c1[nH]cc(F)c(=O)[nH]1 [5-Fluorouracil] + O=C(CCCCCCC(=O)Nc1ccccc1)NO [Vorinostat] (partner 1 µM)
Summary of the method: as §1

[3] = compound: CN[C@@H]1C[C@H]2O[C@@](C)([C@@H]1OC)n1c3ccccc3c3c4c(c5c6ccccc6n2c5c31)C(=O)NC4 [Staurosporine] + O=C(CCCCCCC(=O)Nc1ccccc1)NO [Vorinostat] (partner 1 µM)
Summary of the method: as §1

[4] = compound: CN[C@@H]1C[C@H]2O[C@@](C)([C@@H]1OC)n1c3ccccc3c3c4c(c5c6ccccc6n2c5c31)C(=O)NC4 [Staurosporine] + Nc1ncn([C@H]2C[C@H](O)[C@@H](CO)O2)c(=O)n1 [Decitabine] (partner 2 µM)
Summary of the method: as §1

## NCI-H1734
[1]; first compound 0.005 µM
  relative viability: 0.627
[1]; first compound 0.01581 µM
  relative viability: 0.4
[1]; first compound 0.05 µM
  relative viability: 0.279
[1]; first compound 0.1581 µM
  relative viability: 0.165
[1]; first compound 0.5 µM
  relative viability: 0.132
[2]; first compound 0.02 µM
  relative viability: 0.807
[2]; first compound 0.2 µM
  relative viability: 0.835
[2]; first compound 0.6325 µM
  relative viability: 0.685
[2]; first compound 2 µM
  relative viability: 0.464
[3]; first compound 0.005 µM
  relative viability: 0.751
[3]; first compound 0.01581 µM
  relative viability: 0.236
[3]; first compound 0.1581 µM
  relative viability: 0.117
[3]; first compound 0.5 µM
  relative viability: 0.107
[4]; first compound 0.005 µM
  relative viability: 0.495
[4]; first compound 0.01581 µM
  relative viability: 0.353
[4]; first compound 0.05 µM
  relative viability: 0.215
[4]; first compound 0.1581 µM
  relative viability: 0.147
[4]; first compound 0.5 µM
  relative viability: 0.122

## NCI-H441
[1]; first compound 0.005 µM
  relative viability: 0.8
[1]; first compound 0.01581 µM
  relative viability: 0.29
[1]; first compound 0.05 µM
  relative viability: 0.3
[1]; first compound 0.1581 µM
  relative viability: 0.179
[1]; first compound 0.5 µM
  relative viability: 0.156
[2]; first compound 0.02 µM
  relative viability: 0.862
[2]; first compound 0.2 µM
  relative viability: 0.581
[2]; first compound 0.6325 µM
  relative viability: 0.327
[3]; first compound 0.005 µM
  relative viability: 0.458
[3]; first compound 0.01581 µM
  relative viability: 0.327
[3]; first compound 0.05 µM
  relative viability: 0.232
[3]; first compound 0.1581 µM
  relative viability: 0.144
[3]; first compound 0.5 µM
  relative viability: 0.114
[4]; first compound 0.005 µM
  relative viability: 0.226
[4]; first compound 0.01581 µM
  relative viability: 0.192
[4]; first compound 0.05 µM
  relative viability: 0.238
[4]; first compound 0.1581 µM
  relative viability: 0.129
[4]; first compound 0.5 µM
  relative viability: 0.0673

## NCI-H838
[1]; first compound 0.005 µM
  relative viability: 0.259
[1]; first compound 0.01581 µM
  relative viability: 0.179
[1]; first compound 0.05 µM
  relative viability: 0.175
[1]; first compound 0.1581 µM
  relative viability: 0.168
[1]; first compound 0.5 µM
  relative viability: 0.127
[2]; first compound 0.02 µM
  relative viability: 0.716
[2]; first compound 0.2 µM
  relative viability: 0.637
[2]; first compound 0.6325 µM
  relative viability: 0.404
[2]; first compound 2 µM
  relative viability: 0.266
[3]; first compound 0.005 µM
  relative viability: 0.36
[3]; first compound 0.01581 µM
  relative viability: 0.217
[3]; first compound 0.05 µM
  relative viability: 0.142
[3]; first compound 0.1581 µM
  relative viability: 0.171
[4]; first compound 0.005 µM
  relative viability: 0.368
[4]; first compound 0.01581 µM
  relative viability: 0.271
[4]; first compound 0.05 µM
  relative viability: 0.181
[4]; first compound 0.1581 µM
  relative viability: 0.139
[4]; first compound 0.5 µM
  relative viability: 0.141

## NCI-H23
[1]; first compound 0.005 µM
  relative viability: 0.296
[1]; first compound 0.01581 µM
  relative viability: 0.234
[1]; first compound 0.05 µM
  relative viability: 0.193
[1]; first compound 0.1581 µM
  relative viability: 0.176
[1]; first compound 0.5 µM
  relative viability: 0.125
[2]; first compound 0.02 µM
  relative viability: 0.512
[2]; first compound 0.2 µM
  relative viability: 0.582
[2]; first compound 0.6325 µM
  relative viability: 0.307
[2]; first compound 2 µM
  relative viability: 0.21
[3]; first compound 0.005 µM
  relative viability: 0.506
[3]; first compound 0.01581 µM
  relative viability: 0.0921
[3]; first compound 0.05 µM
  relative viability: 0.0962
[3]; first compound 0.1581 µM
  relative viability: 0.143
[3]; first compound 0.5 µM
  relative viability: 0.101
[4]; first compound 0.005 µM
  relative viability: 0.309
[4]; first compound 0.01581 µM
  relative viability: 0.213
[4]; first compound 0.05 µM
  relative viability: 0.203
[4]; first compound 0.1581 µM
  relative viability: 0.163
[4]; first compound 0.5 µM
  relative viability: 0.161

## NCI-H647
[1]; first compound 0.005 µM
  relative viability: 0.53
[1]; first compound 0.01581 µM
  relative viability: 0.295
[1]; first compound 0.05 µM
  relative viability: 0.162
[1]; first compound 0.1581 µM
  relative viability: 0.0569
[1]; first compound 0.5 µM
  relative viability: 0.0579
[2]; first compound 0.02 µM
  relative viability: 0.432
[2]; first compound 0.2 µM
  relative viability: 0.593
[2]; first compound 0.6325 µM
  relative viability: 0.48
[2]; first compound 2 µM
  relative viability: 0.187
[3]; first compound 0.005 µM
  relative viability: 0.247
[3]; first compound 0.01581 µM
  relative viability: 0.117
[3]; first compound 0.05 µM
  relative viability: 0.0686
[3]; first compound 0.1581 µM
  relative viability: 0.0506
[3]; first compound 0.5 µM
  relative viability: 0.0527
[4]; first compound 0.005 µM
  relative viability: 0.379
[4]; first compound 0.01581 µM
  relative viability: 0.247
[4]; first compound 0.05 µM
  relative viability: 0.266
[4]; first compound 0.1581 µM
  relative viability: 0.0707
[4]; first compound 0.5 µM
  relative viability: 0.062

## NCI-H520
[1]; first compound 0.005 µM
  relative viability: 0.711
[1]; first compound 0.01581 µM
  relative viability: 0.448
[1]; first compound 0.05 µM
  relative viability: 0.279
[1]; first compound 0.1581 µM
  relative viability: 0.188
[1]; first compound 0.5 µM
  relative viability: 0.11
[2]; first compound 0.02 µM
  relative viability: 0.673
[2]; first compound 0.2 µM
  relative viability: 0.681
[2]; first compound 0.6325 µM
  relative viability: 0.528
[2]; first compound 2 µM
  relative viability: 0.394
[3]; first compound 0.005 µM
  relative viability: 0.726
[3]; first compound 0.01581 µM
  relative viability: 0.498
[3]; first compound 0.05 µM
  relative viability: 0.384
[3]; first compound 0.1581 µM
  relative viability: 0.191
[3]; first compound 0.5 µM
  relative viability: 0.148
[4]; first compound 0.005 µM
  relative viability: 0.527
[4]; first compound 0.01581 µM
  relative viability: 0.465
[4]; first compound 0.05 µM
  relative viability: 0.392
[4]; first compound 0.1581 µM
  relative viability: 0.188
[4]; first compound 0.5 µM
  relative viability: 0.161
